Test results taken from patent US3941790A, “Bis diketopiperazines” (National Research Development Corporation, priority 1967, dated 1976).
Converted amounts (≈) assume the structure as drawn.

Columns and labels:
[1] = test system: secondary mouse fibroblast cultures; assay: inhibition of 3H-thymidine incorporation (rate of DNA synthesis) in mammalian cell cultures; type: cell-based; conditions: 22 hours incubation; for inhibition at 1 µg/mL: 1 μg./ml.; for inhibition at 3 µg/mL: 3 μg./ml.; for inhibition at 0.3 µg/mL: 0.3 μg./ml.; for inhibition at 200 µg/mL: 200 μg./ml.
Method: The overall effects of various compounds on the rate of synthesis of DNA is mammalian cell cultures are determined with the method of Birnie and Simons (Experimental Cell Research, 1967, 46, 355) by measuring the changes in the amount of ^3 H-thymidine incorporated in 1 hour by secondary mouse fibroblast cultures which have been incubated with a particular compound for 22 hours.
Typical results illustrating the degree of inhibition of ^3 H-thymidine incorporation for the treated fibroblasts as compared with untreated fibroblasts are given in Table I. The results obtained can be regarded as a measure of cytotoxicity and correlate well with results obtained with implanted tumors in mice.

[2] = test system: Sarcoma 180 (S180); assay: implanted tumor Sarcoma 180, mean tumor weight; type: in vivo, mice
Method: (§1) ii. Mice having implanted tumors Sarcoma 180 and Adenocarcinoma 755, and rats having the implanted tumor Walker 256, are treated with 1,2-bis(3,5-dioxopiperazin-1-yl) ethane. The compound is administered by intraperitoneal injection of a suspension of the substance in isotonic saline containing 1/2% (w/v) carboxymethyl cellulose. The mice are dosed with 30 mg. of active substance per kilo daily for 5 out of 8 days, and their tumors are exercised and weighed. The rats are given one dose only of 400 mg. per kilo and maintained without further treatment for 8 days when their tumors are also removed and weighed. Compared with control animals typical Treated/Control values of mean tumor weight for the S180 and Ca 755 tumors are in the range of 5-10%, and for the Walker tumors of the order of 20%.
iii. In tests with tumor S180 similar to those described under (ii) typical Treated/Control values of mean tumor weight for dl-1,2-bis(3,5-dioxopiperazin-1-yl) butane and meso-2,3-bis(3,5-dioxopiperazin-1-yl) butane are 84% at 30 mg./Kg. and 22% at 0.25 mg./Kg. respectively.

[3] = test system: leukemia L1210; assay: leukemia L1210 implanted mice, survival time; type: in vivo; conditions: for Treated/Control value of survival time, L1210: similar to (ii)
Method: Mice implanted with leukemia L1210 are treated as described above with 30 mg. of active substance per kilo for a continuing period until all the animals succumb.

[4] = test system: tumours and other forms of cancer; assay: anti-cancer / biological activity, general statement; conditions: for biological activity of d and l forms compared with racemic dl mixture: each substantially free from the other and from the dl form
[5] = test system: metastases; assay: inhibition of metastases; conditions: in vivo
[6] = test system: leukemia L1210; assay: leukemia L1210 ascites cells injected intraperitoneally, survival and non-takes (Table II); type: in vivo, mice; conditions: daily i.p. 40 mg./Kg.; for Non-takes: groups of 10 mice, 10% DMSO control 1/10; for Mean survival days: 10% DMSO control 10.1; for Survival days: individual mice
Method: v. A suspension of leukaemic cells from DBA2 mice heavily infected with leukemia L1210 is obtained by removing ascites from the peritoneal cavity. The ascitic fluid is diluted in saline and injected intraperitoneally at a level of 10^6 cell into groups of BDFi females.
Stock solutions of each of the dl, d and l isomers of 1,2-bis(3,5-dioxopiperaxin-1-yl)propane in dimethylsulphoxide (DMSO) are prepared and kept frozen. The solutions are thawed each morning and an aliquot diluted 10-fold with saline. Daily intraperitoneal injections of the three diluted solutions into groups of 10 mice are started on the day after innoculation of the leukaemic cells at a daily dosage level of 40 mg./Kg. (equivalent to 0.5 to 1.0 ml of solution per injection). A control group of mice is injected daily with a similar volume of 10% DMSO in saline.
In general, the deaths of mice in any group occur within a few days of each other. If one or more members of a group survive 5 days longer than any other of their companions, injections are stopped and if these mice survive a further 5 days they are classed as failures of transplantation. This is merely an objective criterion of a situation which is visually obvious; the "non-Takes" typically looking sleek and healthy and having no tumor at the inoculation site nor having their bellies swollen with ascitic fluid.

[7] = physchem; conditions: water
Text: Although the invention is restricted to one stereoisomeric form as far as certain compounds are concerned, others can exist in different stereoisomeric forms, thus the cyclo-butane analogue (I,R1 R2 = C2 H4) can exist in a trans form and also a cis form.

[8] = test system: leukemia L1210; assay: inter-cerebrally implanted leukemia L1210; type: in vivo
[9] = test system: lymphosarcomas, fibrosarcomas, carcinomas, lymphoblastic leukemias and Hodgkin's disease; assay: trials in human patients with various forms of cancer; type: in vivo; conditions: some previously treated unsuccessfully with other drugs or radiotherapy
[10] = stability of aqueous salt solutions; type: physicochemical; conditions: acid solution plus disodium hydrogen phosphate, pH 5.7; injection within 1 hour of preparation recommended
Method: When the compounds are to be formulated as salts, preferred formulations are prepared with methane sulphonic acid, isethionic acid, tartaric acid and other solubilizing acids. Salts thus formed are frequently difficult to isolate in view of the weak basicity of some of the parent compounds but their aqueous solutions, after adjustment to physiologically acceptable pH with buffers, are stable for extended periods of time. Solutions of similar strength, i.e., 0.5% (w/v), are also obtainable with hydrochloric acid.
iv. The product of Example 2 (0.548 g.) is added to 5 ml. of a 0.4N solution of (1) hydrochloric acid, (2) isethionic acid, (3) methane sulphonic acid, or (4) tartaric acid, and the mixture is made up to 100 ml. by the addition of water. The solution so obtained is added to an aqueous solution of disodium hydrogen phosphate (0.2M, 10 ml.) to provide a stable solution having a pH of 5.7. Injection of the solution within 1 hour of preparation is recommended.

[11] = survival and weight gain of treated S180 tumor-bearing mice; type: in vivo; conditions: fed at 30 mg./Kg. on 5 out of 8 days
[12] = test system: Adenocarcinoma 755 (Ca 755); assay: implanted tumor Adenocarcinoma 755, mean tumor weight; type: in vivo; conditions: mice, i.p., 30 mg. per kilo daily for 5 out of 8 days
Method: as §1

[13] = test system: Walker 256; assay: implanted tumor Walker 256, mean tumor weight; type: in vivo; conditions: rats, i.p., one dose of 400 mg. per kilo, 8 days
Method: as §1

C[C@H]([C@H](C)N1CC(=O)NC(=O)C1)N1CC(=O)NC(=O)C1 [meso-2,3-bis(3,5-Dioxopiperazin-1-yl)butane]
inhibition at 0.002 µg/mL ([1]; 0.002 μg./ml.): 19%
inhibition at 0.01 µg/mL ([1]; 0.01 μg./ml.): 72%
inhibition at 1 µg/mL [1]: 78%
Treated/Control value of mean tumor weight, S180 ([2]; 0.25 mg./Kg., similar to (ii)): 22%
Treated/Control value of survival time, L1210 ([3]; 0.25 mg./Kg.): 165%
anti-cancer activity, in words [4]: significant activity

O=C1CN([C@@H]2CC[C@H]2N2CC(=O)NC(=O)C2)CC(=O)N1 (relative stereo) [trans-1,2-bis(3,5-Dioxopiperazin-1-yl)cyclobutane]
inhibition at 3 µg/mL [1]: 22%
inhibition at 67 µg/mL ([1]; 67 μg./ml.): 60%

O=C(O)CN(CCN(CC(=O)O)CC(=O)O)CC(=O)O [ethylene diamine tetra-acetic acid, reference compound]
anti-cancer activity, in words [4]: lack of activity

CC(CN1CC(=O)NC(=O)C1)N1CC(=O)NC(=O)C1 (centres unmarked) [1,2-bis(3,5-dioxopiperazin-1-yl)propane]
inhibition of metastases [5]: marked degree of inhibition of metastases

CC(CN1CC(=O)NC(=O)C1)N1CC(=O)NC(=O)C1 (racemic) [dl-1,2-bis(3,5-Dioxopiperazin-1-yl)propane]
inhibition at 0.3 µg/mL [1]: 15%
inhibition at 1 µg/mL [1]: 48%
inhibition at 5 µg/mL ([1]; 5 μg./ml.): 63%
Treated/Control value for mean tumor weight, S180 ([2]; mice, fed at 30 mg./Kg. on 5 out of 8 days): 7%
Treated/Control value for survival time, L1210 ([3]; intraperitoneal, 30 mg./Kg. daily until death): 257%
Treated/Control value for survival time, L1210 ([3]; orally, 75 mg./Kg.): 157%
Treated/Control value for survival time, L1210 ([3]; subcutaneous, 30 mg./Kg. daily until death): 223%
% Increase of survival time over controls [6]: 86%
Non-takes [6]: 0/10
Mean survival days [6]: 18.8 days
Survival days ([6]; listed as dl-): 25 days
solubility [7]: ~1000 µg/mL (≈ 3.73 mM)
effectiveness against inter-cerebrally implanted leukemia L1210 ([8]; in vivo): effective
ability to cross the blood-brain barrier ([8]; indicated by effect on inter-cerebrally implanted L1210): indicative of the ability of the compound to cross the blood-brain barrier
regression and palliation of cancers in patients [9]: significant regression and palliation of the cancers
stability of solution [10]: stable
survival of animals [11]: all the animals surviving
weight gain ([11]; controls 29%): 12%

C[C@H]([C@@H](C)N1CC(=O)NC(=O)C1)N1CC(=O)NC(=O)C1 (relative stereo) [dl-2,3-bis(3,5-dioxopiperazin-1-yl)butane, reference compound]
inhibition at 3 µg/mL [1]: 3%
inhibition at 13 µg/mL ([1]; 13 μg./ml.): 26%
Treated/Control value of mean tumor weight, S180 ([2]; 30 mg./Kg., similar to (ii)): 84%
Treated/Control value of survival time, L1210 ([3]; 30 mg./Kg.): 80%
anti-cancer activity, in words [4]: essentially inactive

C[C@@H](CN1CC(=O)NC(=O)C1)N1CC(=O)NC(=O)C1 [d-1,2-bis(3,5-Dioxopiperazin-1-yl)propane]
inhibition at 1 µg/mL [1]: 44%
inhibition at 200 µg/mL [1]: 74%
% Increase of survival time over controls [6]: 93%
Non-takes [6]: 0/10
Mean survival days [6]: 19.5 days
Survival days ([6]; listed as d-): 26 days
biological activity of d and l forms compared with racemic dl mixture [4]: no substantial difference in biological activity

O=C1CN(CCN2CC(=O)NC(=O)C2)CC(=O)N1 [1,2-bis(3,5-dioxopiperazin-1-yl)ethane, 1,2-bis(3,5-Dioxopiperazin-1-yl)ethane]
inhibition at 0.3 µg/mL [1]: 21%
inhibition at 8 µg/mL ([1]; 8 μg./ml.): 69%
Treated/Control value of mean tumor weight, S180 ([2]; mice, i.p., 30 mg. per kilo daily for 5 out of 8 days): 5-10%
Treated/Control value of mean tumor weight, Ca 755 [12]: 5-10%
Treated/Control value of mean tumor weight, Walker [13]: ~20%

C[C@H](CN1CC(=O)NC(=O)C1)N1CC(=O)NC(=O)C1 [l-1,2-bis(3,5-Dioxopiperazin-1-yl)propane]
inhibition at 1 µg/mL [1]: 52%
inhibition at 200 µg/mL [1]: 72%
% Increase of survival time over controls [6]: 99%
Non-takes [6]: 0/10
Mean survival days [6]: 20.1 days
Survival days ([6]; listed as l-): 26 days
solubility [7]: ~11000 µg/mL (≈ 41 mM)
biological activity of d and l forms compared with racemic dl mixture [4]: no substantial difference in biological activity
